Measurements published in patent publication US20120252796A1, “COMPOUNDS FOR THE TREATMENT OF DYSLIPIDEMIA AND RELATED DISEASES” (priority 2009, published 2012).

Biological target: PCSK9 (Homo sapiens, UniProt Q8NBP7)
Test: PCSK9-LDLR in vitro Binding Assay (ELISA)
Experimental: The PCSK9-LDLR in vitro Binding Assay is a quantitative solid phase binding assay between PCSK9 and recombinant LDLR. Plates were pre-coated with a recombinant LDLR-AB domain, which binds PCSK9. Test compound at different concentration was added to the PCSK9 and added to LDLR immobilized on the wells. The amount of bound PCSK9 is measured by binding it with biotinylated anti-His-tag monoclonal antibody, followed by binding with horseradish peroxidase conjugated streptavidin substrate. The color was quantified by ELISA reader at […] which reflects the relative amount of PCSK9 that binds to LDLR in presence and absence of the inhibitor. EC50 values were calculated by nonlinear regression analysis using graph pad prism software. Each concentration point represents values in duplicates.

PCSK9, sequence (Q8NBP7 153-692): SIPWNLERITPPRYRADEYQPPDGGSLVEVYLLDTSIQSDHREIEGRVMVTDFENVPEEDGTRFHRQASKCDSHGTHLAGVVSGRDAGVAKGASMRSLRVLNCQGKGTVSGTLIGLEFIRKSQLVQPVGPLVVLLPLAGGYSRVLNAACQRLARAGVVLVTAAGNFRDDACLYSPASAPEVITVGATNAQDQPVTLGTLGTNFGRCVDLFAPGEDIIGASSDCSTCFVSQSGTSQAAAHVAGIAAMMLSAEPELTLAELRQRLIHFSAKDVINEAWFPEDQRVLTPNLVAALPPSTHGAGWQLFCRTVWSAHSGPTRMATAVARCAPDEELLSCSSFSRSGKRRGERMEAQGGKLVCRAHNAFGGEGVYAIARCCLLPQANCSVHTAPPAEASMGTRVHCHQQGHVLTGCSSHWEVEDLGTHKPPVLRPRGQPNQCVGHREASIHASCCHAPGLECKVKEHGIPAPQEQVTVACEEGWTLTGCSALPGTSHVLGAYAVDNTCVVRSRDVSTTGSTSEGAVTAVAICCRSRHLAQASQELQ
PCSK9, sequence (Q8NBP7 31-152 partner limits assumed): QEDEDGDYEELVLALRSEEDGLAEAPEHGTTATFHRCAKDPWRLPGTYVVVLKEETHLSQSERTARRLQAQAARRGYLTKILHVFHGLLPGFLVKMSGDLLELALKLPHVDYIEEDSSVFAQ

Row | Compound | % Inhibition PCSK9 (Concentration 100 μM) | % Inhibition PCSK9 (Concentration 1 μM, 1 µM) | % Inhibition PCSK9 (Concentration 10 μM, 10 µM) | % Inhibition PCSK9 (Concentration 100 μM, 100 µM) | other results
1 | Cc1oc(-c2ccccc2)nc1CCC1COC(C)(C(=O)NCC(=O)N2CCOCC2)OC1 (stereo not drawn) [Example 49, 2-methyl-5-t-(2-(5-methyl-2-phenyloxazol-4-yl)ethyl)-N-(2-morpholino-2-oxoethyl)-1,3-dioxane-2-carboxamide] | 17% | – | – | – | –
2 | Cc1oc(-c2ccccc2)nc1CCC1COC(C)(C(=O)NO)OC1 (stereo not drawn) [Example 36, N-hydroxy-2-methyl-5t-(2-(5-methyl-2-phenyloxazol-4-yl)ethyl)-1,3-dioxane-2-carboxamide] | – | 10% | – | 24% | –
3 | Cc1ccc(-c2nc(CC3COC(C)(C(=O)NCC4CCOCC4)OC3)c(C)o2)cc1 (stereo not drawn) [Example 62, 2-methyl-5-((5-methyl-2-(p-tolyl)oxazol-4-yl)methyl)-N—((tetrahydro-2H-pyran-4-yl)methyl)-1,3-dioxane-2-carboxamide] | – | – | – | – | inhibition at 0.1 µM (Concentration 0.1 μM): 17%; inhibition at 1 µM (Concentration 1 μM): 21%; inhibition at 10 µM (Concentration 10 μM): 14%; inhibition at 100 µM (Concentration 100 μM): 41%
4 | Cc1ccc(-c2nc(CC3COC(C)(C(=O)NO)OC3)c(C)o2)cc1 (stereo not drawn) [Example 61, N-hydroxy-2-methyl-5-t-((5-methyl-2-(p-tolyl)oxazol-4-yl)methyl)-1,3-dioxane-2-carboxamide] | – | – | 21% | 32% | –
5 | Cc1oc(-c2ccccc2)nc1CCC1COC(C)(C(=O)NCC(=O)N2CCSCC2)OC1 (stereo not drawn) [Example 52, 2-methyl-5-c-(2-(5-methyl-2-phenyloxazol-4-yl)ethyl)-N-(2-oxo-2-thiomorpholinoethyl)-1,3-dioxane-2-carboxamide] | 32% | – | – | – | % Inhibition PCSK9 (Concentration 10 μM): 20%
6 | Cc1ccc(-n2nc(C(C)(C)C)cc2CC2COC(C)(C(=O)N3CCN(C)CC3)OC2)cc1 (stereo not drawn) [Example 105, (5-((3-(tert-butyl)-1-(p-tolyl)-1H-pyrazol-5-yl)methyl)-2-methyl-1,3-dioxan-2-yl)(4-methylpiperazin-1-yl)methanone] | – | – | – | – | inhibition at 10 µM (Concentration 10 μM): 10%; inhibition at 100 µM (Concentration 100 μM): 40%
7 | Cc1oc(-c2ccccc2)nc1CC1COC(C)(C(=O)N2CCOCC2)OC1 (stereo not drawn) [Example 11, (2-methyl-5-((5-methyl-2-phenyloxazol-4-yl)methyl)-1,3-dioxan-2-yl)(morpholino)methanone] | – | – | – | – | inhibition at 5 µM (Concentration 5 μM): 20%; inhibition at 10 µM (Concentration 10 μM): 30%; inhibition at 100 µM (Concentration 100 μM): 44%

Now from value to compound, other results behind:

Row | % Inhibition PCSK9 (Concentration 100 μM) | % Inhibition PCSK9 (Concentration 1 μM, 1 µM) | % Inhibition PCSK9 (Concentration 10 μM, 10 µM) | % Inhibition PCSK9 (Concentration 100 μM, 100 µM) | Compound | other results
8 | – | 3% | 21% | 25% | Cc1ccc(-c2nc(CC3COC(C)(C(=O)N4CCOCC4)OC3)c(C)o2)cc1 (stereo not drawn) [Example 67, (2-methyl-5-t-((5-methyl-2-(p-tolyl)oxazol-4-yl)methyl)-1,3-dioxan-2-yl)(morpholino)methanone] | –
9 | 42% | 20% | 25% | – | Cc1oc(-c2ccncc2)nc1CC1COC(C)(C(=O)N2CCOCC2)OC1 (stereo not drawn) [Example 83, (2-methyl-5-t-((5-methyl-2-(pyridin-4-yl)oxazol-4-yl)methyl)-1,3-dioxan-2-yl)(morpholino)methanone] | –
10 | – | – | 7% | 10% | Cc1oc(-c2ccncc2)nc1CC1COC(C)(C(=O)NCC(=O)NCC2CCOCC2)OC1 (stereo not drawn) [Example 89, 2-methyl-5-t-((5-methyl-2-(pyridin-4-yl)oxazol-4-yl)methyl)-N-(2-oxo-2-(((tetrahydro-2H-pyran-4-yl)methyl)amino)ethyl)-1,3-dioxane-2-carboxamide] | –
11 | – | 7% | 12% | 23% | Cc1oc(-c2ccncc2)nc1CC1COC(C)(C(=O)NO)OC1 (stereo not drawn) [Example 81, N-hydroxy-2-methyl-5-t-((5-methyl-2-(pyridin-4-yl)oxazol-4-yl)methyl)-1,3-dioxane-2-carboxamide] | –
12 | 42% | 13% | 20% | – | Cc1oc(-c2ccncc2)nc1CC1COC(C)(C(=O)N2CCOCC2)OC1 (stereo not drawn) [Example 82, (2-methyl-5-c-((5-methyl-2-(pyridin-4-yl)oxazol-4-yl)methyl)-1,3-dioxan-2-yl)(morpholino)methanone] | –
